# Reference: publication PMC10746543, “Design principles for cyclin K molecular glue degraders” (Nature Chemical Biology, 2023)
# Several values for one entry are separate records, joined by “and”; a condition that tells them apart may be missing. Identical values can stand only once. Like-named read-outs stand apart in the source and are kept apart here.
# Columns and labels:
# [1] = target: T1, CDK12–cyclin K and DDB1 (Homo sapiens, UniProt Q16531+Q9NYV4, K965R); assay: TR-FRET ternary complex formation assay (compound titration); type: binding; settings: for TR-FRET signal at compound concentration: replicate titrations
# T1 construct: His6–CDK12 (a.a. 713–1,052); full-length or beta-propeller B domain deletion (ΔBPB: a.a. 396–705 deleted) constructs of His6–DDB1ΔBPB, StrepII–Avi–DDB1, or His6–Spy–DDB1; made in house; host or cells: Trichoplusia ni High Five insect cells (baculovirus)
# T1 sequence (Q9NYV4 713-1052 K965R): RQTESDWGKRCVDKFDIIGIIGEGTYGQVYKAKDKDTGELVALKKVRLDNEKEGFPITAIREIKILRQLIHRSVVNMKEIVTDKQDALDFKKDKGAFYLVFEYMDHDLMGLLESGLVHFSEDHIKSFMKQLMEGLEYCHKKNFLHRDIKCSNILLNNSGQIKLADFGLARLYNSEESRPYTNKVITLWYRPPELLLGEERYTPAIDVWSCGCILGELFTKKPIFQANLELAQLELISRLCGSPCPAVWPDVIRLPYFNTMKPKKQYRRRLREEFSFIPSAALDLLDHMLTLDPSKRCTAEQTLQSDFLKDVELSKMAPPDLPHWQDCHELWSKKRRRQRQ
# T1 sequence (O75909 1-267 partner): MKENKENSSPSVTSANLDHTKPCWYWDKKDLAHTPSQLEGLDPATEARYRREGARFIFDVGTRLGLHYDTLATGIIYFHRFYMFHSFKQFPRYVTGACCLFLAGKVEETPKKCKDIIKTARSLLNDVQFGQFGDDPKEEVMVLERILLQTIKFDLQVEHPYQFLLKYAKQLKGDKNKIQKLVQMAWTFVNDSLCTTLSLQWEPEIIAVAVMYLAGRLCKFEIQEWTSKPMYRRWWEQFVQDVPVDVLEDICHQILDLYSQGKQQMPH
# T1 sequence (Q16531 whole entry): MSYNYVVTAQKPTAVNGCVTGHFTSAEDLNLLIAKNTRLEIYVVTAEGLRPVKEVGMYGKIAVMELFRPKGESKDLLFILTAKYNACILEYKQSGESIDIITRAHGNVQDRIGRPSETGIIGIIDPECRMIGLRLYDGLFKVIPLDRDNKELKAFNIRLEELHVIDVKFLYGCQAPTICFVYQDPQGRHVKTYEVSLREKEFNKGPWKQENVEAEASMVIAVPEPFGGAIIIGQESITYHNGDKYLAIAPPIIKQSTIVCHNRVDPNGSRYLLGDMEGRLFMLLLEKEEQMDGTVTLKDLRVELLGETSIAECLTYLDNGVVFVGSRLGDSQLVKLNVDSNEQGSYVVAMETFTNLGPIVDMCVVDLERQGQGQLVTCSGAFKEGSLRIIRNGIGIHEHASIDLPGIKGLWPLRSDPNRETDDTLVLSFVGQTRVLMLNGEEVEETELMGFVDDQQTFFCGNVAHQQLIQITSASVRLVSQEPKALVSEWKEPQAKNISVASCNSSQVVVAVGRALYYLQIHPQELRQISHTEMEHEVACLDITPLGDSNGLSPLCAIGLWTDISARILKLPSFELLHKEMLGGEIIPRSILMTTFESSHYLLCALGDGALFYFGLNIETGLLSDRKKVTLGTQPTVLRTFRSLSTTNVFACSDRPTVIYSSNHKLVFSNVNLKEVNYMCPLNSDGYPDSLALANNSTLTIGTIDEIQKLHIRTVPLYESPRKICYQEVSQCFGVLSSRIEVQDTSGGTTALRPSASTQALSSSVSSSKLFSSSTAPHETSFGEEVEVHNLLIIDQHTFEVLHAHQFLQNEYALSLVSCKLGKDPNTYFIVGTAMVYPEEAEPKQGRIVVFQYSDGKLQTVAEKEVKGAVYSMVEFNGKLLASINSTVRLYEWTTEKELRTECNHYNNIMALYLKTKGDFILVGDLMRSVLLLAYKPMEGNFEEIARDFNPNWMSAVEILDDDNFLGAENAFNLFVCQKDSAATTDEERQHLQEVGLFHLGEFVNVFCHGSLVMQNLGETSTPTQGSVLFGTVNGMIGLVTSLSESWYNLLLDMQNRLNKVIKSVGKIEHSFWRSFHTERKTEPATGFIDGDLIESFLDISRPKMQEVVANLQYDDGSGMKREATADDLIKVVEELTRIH
# Procedure, shortened: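 A time delay of 70 μs preceded acquisition, limiting background fluorescence; the ratio of emission at 520 versus 490 nm gave the TR-FRET value.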
# [2] = test system: HEK293T cells; assay: Drug sensitivity assay (CellTiter-Glo viability) with or without MLN4924 pretreatment; type: cell-based, human; settings: for EC50: Homo sapiens, HEK-293T, HEK293T viability, 72 h, compound alone, read-out: Cellular assays EC50; for EC50 / Toxicity rescue: Supplementary Table 2; for Toxicity rescue: MLN4924-mediated cytotoxicity rescue, 10 µM used where n.d.
# Procedure, shortened: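 Cas9-expressing HEK293T cells receive either vehicle or 100 nM MLN4924, then compounds 2 h afterwards. After three days, luminescence-based viability is measured and calculated relative to DMSO.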
# [3] = test system: cyclin K–eGFP degradation reporter; assay: Cyclin K reporter stability analysis (dual-color cyclin K–eGFP reporter); type: cell-based, human
# Procedure, shortened: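 HEK293T–Cas9 cells carrying the cyclin K–eGFP reporter were seeded at 1 × 10^6 ml^−1 and exposed to drug or DMSO for 5 h. Flow cytometry gave geometric means of eGFP and mCherry in round, mCherry-positive cells. The eGFP/mCherry ratio was normalized to the mean of three DMSO controls.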
# [4] = in vitro complex formation, 50 nM CDK12–cyclin K, 100 nM DDB1, text and figures, read-out: TR-FRET EC50
# [5] = compound concentration 79.2001 nM
# [6] = compound concentration 158.4 nM
# [7] = compound concentration 309.6 nM
# [8] = compound concentration 626.401 nM
# [9] = compound concentration 1252.8 nM
# [10] = compound concentration 9936.01 nM
# [11] = compound concentration 20016 nM
# [12] = Supplementary Table 2, HEK293T cycK-eGFP reporter, 5 h, read-out: Cellular assays DC50
# [13] = sheet MOESM7, read-out: log TR-FRET EC50 (converted)
Structure (SMILES),"EC50 [1, 4]",EC50 [2],Toxicity rescue [2],"TR-FRET signal, individual replicate ([1]; compound concentration 4.68 nM)","TR-FRET signal, individual replicate ([1]; compound concentration 21.6 nM)","TR-FRET signal, individual replicate ([1]; compound concentration 36 nM)","TR-FRET signal, individual replicate [1, 5]","TR-FRET signal, individual replicate [1, 6]","TR-FRET signal, individual replicate [1, 7]","TR-FRET signal, individual replicate [1, 8]","TR-FRET signal, individual replicate [1, 9]","TR-FRET signal, individual replicate ([1]; compound concentration 2448 nM)","TR-FRET signal, individual replicate [1, 10]","TR-FRET signal, individual replicate [1, 11]","DC50 [3, 12]","EC50 [1, 13]",TR-FRET signal ([1]; compound concentration 4.68 nM),TR-FRET signal ([1]; compound concentration 21.6 nM),TR-FRET signal ([1]; compound concentration 36 nM),"TR-FRET signal [1, 5]",other results
Cc1nn(C)c(CNc2nc(NCc3ccc(-c4ccccn4)cc3)c3ncn(C(C)C)c3n2)c1S(N)(=O)=O [DS59],101 ± 5 nM,1420 nM,230%,,,,,,,,,,,,,,,,,,"TR-FRET signal at compound concentration 4.68 nM ([1]; compound concentration 4.68 nM, raw titration data): 0.1939 and 0.1953; TR-FRET signal at compound concentration 21.6 nM ([1]; compound concentration 21.6 nM, raw titration data): 0.4174 and 0.4335; TR-FRET signal at compound concentration 36 nM ([1]; compound concentration 36 nM, raw titration data): 0.8682 and 0.9198; TR-FRET signal at compound concentration 79.2001 nM ([1]; compound concentration 79.2001 nM, raw titration data): 1.565 and 1.549; TR-FRET signal at compound concentration 158.4 nM ([1]; compound concentration 158.4 nM, raw titration data): 2.139 and 2.165; TR-FRET signal at compound concentration 309.6 nM ([1]; compound concentration 309.6 nM, raw titration data): 2.574 and 2.56; TR-FRET signal at compound concentration 626.401 nM ([1]; compound concentration 626.401 nM, raw titration data): 2.883 and 2.886; TR-FRET signal at compound concentration 1252.8 nM ([1]; compound concentration 1252.8 nM, raw titration data): 3.135 and 3.111; TR-FRET signal at compound concentration 2448 nM ([1]; compound concentration 2448 nM, raw titration data): 3.2283 and 3.26; TR-FRET signal at compound concentration 9936.01 nM ([1]; compound concentration 9936.01 nM, raw titration data): 3.148 and 3.114; TR-FRET signal at compound concentration 20016 nM ([1]; compound concentration 20016 nM, raw titration data): 2.946 and 3.018; EC50 ([1]; source data sheet correlations, read-out: TR-FRET EC50): 101 nM; DC50 ([3]; source data sheet correlations, read-out: DC50): 566 nM"
CC[C@H](CO)Nc1nc(NCCC2CC2)c2ncn(C(C)C)c2n1 [DS37],,> 10000 nM,0%,0.1908 and 0.2636,0.201 and 0.2304,0.2177 and 0.2395,0.2212 and 0.2472,0.2411 and 0.2679,0.2728 and 0.306,0.3075 and 0.349,0.3712 and 0.4097,0.4307 and 0.4643,0.5169 and 0.5543,0.5088 and 0.5368,> 10000 nM,,,,,,
CC[C@H](CO)Nc1nc(NCCCC2CCCCC2)c2ncn(C(C)C)c2n1 [DS32],,> 10000 nM,0%,0.2147 and 0.2508,0.2391 and 0.2736,0.287 and 0.3299,0.3607 and 0.4271,0.4885 and 0.5801,0.7088 and 0.8235,1.016 and 1.206,1.37 and 1.584,1.698 and 1.9826,1.942 and 2.207,1.955 and 2.01,> 10000 nM,676 nM,,,,,"EC50 ([1]; Supplementary Table 2, read-out: TR-FRET EC50 TR-FRET): 676 nM; fold lower affinity than DS11 ([1]; TR-FRET complex formation): ten-fold"
"CC(C)(C)c1cnc(CSc2cnc(NC(=O)C3CCNCC3)s2)o1 [SNS032, reference compound]",,265 nM,-22%,,,,,,,,,,,,> 10000 nM,,0.1508 and 0.1736,0.2014 and 0.2318,0.2617 and 0.2904,0.3013 and 0.3457,"TR-FRET signal [1, 6]: 0.3207 and 0.3602; TR-FRET signal [1, 7]: 0.329 and 0.3662; TR-FRET signal [1, 8]: 0.3309 and 0.3799; TR-FRET signal [1, 9]: 0.346 and 0.4035; TR-FRET signal ([1]; compound concentration 2448 nM): 0.3618 and 0.4046; TR-FRET signal [1, 10]: 0.3822 and 0.42; TR-FRET signal [1, 11]: 0.3638 and 0.4143; DDB1–CDK12 complex formation, result in words ([1]; in vitro TR-FRET): no gain-of-function activity; % MLN4924 rescue ([2]; PCA input): 0%"
CCCCCCCCNc1nc(N[C@H](CC)CO)nc2c1ncn2C(C)C [DS06],1160 nM,> 10000 nM,0%,0.1399 and 0.1627 and 0.1459 and 0.1432,0.173 and 0.1922 and 0.1723 and 0.1754,0.2228 and 0.253 and 0.2242 and 0.2297,0.3087 and 0.3318 and 0.3304 and 0.3159,0.4597 and 0.4851 and 0.4992 and 0.3486,0.6961 and 0.632 and 0.7161 and 0.7436,0.9481 and 0.8335 and 0.9996 and 0.9936,1.125 and 0.8632 and 1.358 and 1.356,1.642 and 1.809 and 1.711 and 1.743,2.02 and 2.174 and 2.025 and 2.055,2.092 and 2.228 and 2.285 and 2.284,> 10000 nM,1160 nM,0.1399 and 0.1627 and 0.1459 and 0.1432,0.173 and 0.1922 and 0.1723 and 0.1754,0.2228 and 0.253 and 0.2242 and 0.2297,0.3087 and 0.3318 and 0.3304 and 0.3159,"TR-FRET signal [1, 6]: 0.4597 and 0.4851 and 0.4992 and 0.3486; TR-FRET signal [1, 7]: 0.6961 and 0.632 and 0.7161 and 0.7436; TR-FRET signal [1, 8]: 0.9481 and 0.8335 and 0.9996 and 0.9936; TR-FRET signal [1, 9]: 1.125 and 0.8632 and 1.358 and 1.356; TR-FRET signal ([1]; compound concentration 2448 nM): 1.642 and 1.809 and 1.711 and 1.743; TR-FRET signal [1, 10]: 2.02 and 2.174 and 2.025 and 2.055; TR-FRET signal [1, 11]: 2.092 and 2.228 and 2.285 and 2.284"
CC[C@H](CO)Nc1nc(NCCCCCc2cccc3ccccc23)c2ncn(C(C)C)c2n1 [DS15],182 nM,> 10000 nM,0%,0.1682 and 0.1874,0.2977 and 0.3197,0.5215 and 0.541,0.8673 and 0.9745,1.23 and 1.324,1.677 and 1.781,2.096 and 2.217,2.231 and 2.525,2.525 and 2.68,2.633 and 2.833,2.343 and 2.482,> 10000 nM,182 nM,,,,,"TR-FRET signal at compound concentration ([1]; compound concentration 4.68 nM): 0.1682 and 0.1874; TR-FRET signal at compound concentration ([1]; compound concentration 21.6 nM): 0.2977 and 0.3197; TR-FRET signal at compound concentration ([1]; compound concentration 36 nM): 0.5215 and 0.541; TR-FRET signal at compound concentration [1, 5]: 0.8673 and 0.9745; TR-FRET signal at compound concentration [1, 6]: 1.23 and 1.324; TR-FRET signal at compound concentration [1, 7]: 1.677 and 1.781; TR-FRET signal at compound concentration [1, 8]: 2.096 and 2.217; TR-FRET signal at compound concentration [1, 9]: 2.231 and 2.525; TR-FRET signal at compound concentration ([1]; compound concentration 2448 nM): 2.525 and 2.68; TR-FRET signal at compound concentration [1, 10]: 2.633 and 2.833; TR-FRET signal at compound concentration [1, 11]: 2.343 and 2.482"
